Columns and labels:
[1] = Intrinsic clearance in human liver microsomes at 1 uM measured upto 30 mins in presence of NADPH by LC/MS analysis; assay type: ADME, Microsome; settings: read-out: CLH (converted)
[2] = target: Voltage-gated inwardly rectifying potassium channel KCNH2 (Homo sapiens, UniProt Q12809); test: Inhibition of human ERG; assay type: toxicity
Cytochrome P450 2D6 = Cytochrome P450 2D6 (Homo sapiens, UniProt P10635); test: Inhibition of CYP2D6 (unknown origin); assay type: ADME
[3] = Half-life in Non human primate at […], po or 1 mg/kg, iv; assay type: ADME, organism-based; settings: primates, in vivo, dose 1.5 mg/kg
Cytochrome P450 3A4 = Cytochrome P450 3A4 (Homo sapiens, UniProt P08684); test: Inhibition of CYP3A4 (unknown origin); assay type: ADME
[4] = Toxicity in mouse xenografted with human HPAC cells assessed as tolerance at 30 to 300 mg/kg, po measured after 24 hrs; assay type: organism-based; settings: in vivo, dose 30-300 mg/kg
[5] = Half-life in Sprague-Dawley rat at 3 mg/kg, po or 1 mg/kg, iv measured after 24 hrs by LC-MS/MS analysis; assay type: ADME, organism-based; settings: in vivo
Aurora kinase B = Aurora kinase B (Homo sapiens, UniProt Q96GD4); test: Binding affinity to Aurora B (unknown origin) in presence of ATP
[6] = Cmax in Sprague-Dawley rat at 3 mg/kg, po or 1 mg/kg, iv measured after 24 hrs by LC-MS/MS analysis; assay type: ADME, organism-based; settings: in vivo
Primates = test: Clearance in Non human primate assessed as hepatic blood flow at […], po or 1 mg/kg, iv; assay type: ADME, organism-based; settings: in vivo, dose 1.5 mg/kg
[7] = Drug concentration in mouse plasma xenografted with HPAC cells at 300 mg/kg, po measured after 24 hrs; assay type: ADME, organism-based
Cytochrome P450 2C9 = Cytochrome P450 2C9 (Homo sapiens, UniProt P11712); test: Inhibition of CYP2C9 (unknown origin); assay type: ADME
[8] = AUC in Sprague-Dawley rat at 3 mg/kg, po or 1 mg/kg, iv measured after 24 hrs by LC-MS/MS analysis; assay type: ADME, organism-based; settings: in vivo
[9] = Oral bioavailability in Non human primate at […]; assay type: ADME, organism-based; settings: primates, in vivo, dose 1.5 mg/kg
[10] = Drug concentration in mouse plasma xenografted with HPAC cells at 100 mg/kg, po measured after 24 hrs; assay type: ADME, organism-based
[11] = Solubility of compound in FASSIF; assay type: physicochemical
Cytochrome P450 2B6 = target: T1, Cytochrome P450 2B6 (Homo sapiens, UniProt P20813); test: Inhibition of CYP2B6 (unknown origin); assay type: ADME
T1 sequence (P20813 whole entry): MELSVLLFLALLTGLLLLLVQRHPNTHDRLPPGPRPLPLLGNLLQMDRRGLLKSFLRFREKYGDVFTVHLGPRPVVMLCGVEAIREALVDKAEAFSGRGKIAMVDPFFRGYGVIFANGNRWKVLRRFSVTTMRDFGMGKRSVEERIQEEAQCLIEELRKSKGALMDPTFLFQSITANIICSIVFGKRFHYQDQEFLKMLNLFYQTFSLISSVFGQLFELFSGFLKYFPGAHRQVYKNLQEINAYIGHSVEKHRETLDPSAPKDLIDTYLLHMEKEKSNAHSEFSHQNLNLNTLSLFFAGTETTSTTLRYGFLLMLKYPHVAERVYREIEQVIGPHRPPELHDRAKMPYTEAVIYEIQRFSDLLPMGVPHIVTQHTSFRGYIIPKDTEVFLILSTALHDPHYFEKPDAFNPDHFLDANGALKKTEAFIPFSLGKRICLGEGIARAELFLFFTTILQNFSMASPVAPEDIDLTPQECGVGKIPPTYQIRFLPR

[12] = Cmax in Non human primate at […], po or 1 mg/kg, iv; assay type: ADME, organism-based; settings: primates, in vivo, dose 1.5 mg/kg
Cytochrome P450 = test: Time dependent inhibition of CYP (unknown origin); assay type: ADME, protein assay; settings: human
[13] = Apparent permeability across apical to basolateral side in human Caco-2 cells at 50 uM incubated for 120 mins by LC-MS analysis; assay type: ADME, cell-based
[14] = Clearance in Sprague-Dawley rat assessed as hepatic blood flow at 3 mg/kg, po or 1 mg/kg, iv measured after 24 hrs by LC-MS/MS analysis; assay type: ADME, organism-based; settings: in vivo
[15] = Oral bioavailability in Sprague-Dawley rat at 3 mg/kg measured after 24 hrs by LC-MS/MS analysis; assay type: ADME, organism-based; settings: in vivo
[16] = target: High affinity nerve growth factor receptor (Homo sapiens, UniProt P04629); test: Binding affinity to TRKA (unknown origin) in presence of ATP
[17] = Solubility of compound in SGF; assay type: physicochemical
Cytochrome P450 1A2 = target: T2, Cytochrome P450 1A2 (Homo sapiens, UniProt P05177); test: Inhibition of CYP1A2 (unknown origin); assay type: ADME
T2 sequence (P05177 whole entry): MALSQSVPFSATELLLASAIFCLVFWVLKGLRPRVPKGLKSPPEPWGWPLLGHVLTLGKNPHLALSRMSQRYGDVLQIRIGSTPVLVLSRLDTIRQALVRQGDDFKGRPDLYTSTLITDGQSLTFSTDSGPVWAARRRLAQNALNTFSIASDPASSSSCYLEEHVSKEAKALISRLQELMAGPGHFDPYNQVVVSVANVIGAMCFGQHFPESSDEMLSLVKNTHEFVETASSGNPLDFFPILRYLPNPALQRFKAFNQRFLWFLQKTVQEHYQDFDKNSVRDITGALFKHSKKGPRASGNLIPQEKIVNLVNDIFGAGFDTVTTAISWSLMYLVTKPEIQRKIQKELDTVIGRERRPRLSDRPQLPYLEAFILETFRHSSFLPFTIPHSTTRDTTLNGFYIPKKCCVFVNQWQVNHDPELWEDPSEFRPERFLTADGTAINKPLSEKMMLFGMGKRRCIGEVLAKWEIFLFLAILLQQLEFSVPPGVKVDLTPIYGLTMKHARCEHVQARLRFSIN

[18] = AUC in Non human primate at […], po or 1 mg/kg, iv; assay type: ADME, organism-based; settings: primates, in vivo, dose 1.5 mg/kg

High affinity nerve growth factor receptor, sequence (P04629 whole entry): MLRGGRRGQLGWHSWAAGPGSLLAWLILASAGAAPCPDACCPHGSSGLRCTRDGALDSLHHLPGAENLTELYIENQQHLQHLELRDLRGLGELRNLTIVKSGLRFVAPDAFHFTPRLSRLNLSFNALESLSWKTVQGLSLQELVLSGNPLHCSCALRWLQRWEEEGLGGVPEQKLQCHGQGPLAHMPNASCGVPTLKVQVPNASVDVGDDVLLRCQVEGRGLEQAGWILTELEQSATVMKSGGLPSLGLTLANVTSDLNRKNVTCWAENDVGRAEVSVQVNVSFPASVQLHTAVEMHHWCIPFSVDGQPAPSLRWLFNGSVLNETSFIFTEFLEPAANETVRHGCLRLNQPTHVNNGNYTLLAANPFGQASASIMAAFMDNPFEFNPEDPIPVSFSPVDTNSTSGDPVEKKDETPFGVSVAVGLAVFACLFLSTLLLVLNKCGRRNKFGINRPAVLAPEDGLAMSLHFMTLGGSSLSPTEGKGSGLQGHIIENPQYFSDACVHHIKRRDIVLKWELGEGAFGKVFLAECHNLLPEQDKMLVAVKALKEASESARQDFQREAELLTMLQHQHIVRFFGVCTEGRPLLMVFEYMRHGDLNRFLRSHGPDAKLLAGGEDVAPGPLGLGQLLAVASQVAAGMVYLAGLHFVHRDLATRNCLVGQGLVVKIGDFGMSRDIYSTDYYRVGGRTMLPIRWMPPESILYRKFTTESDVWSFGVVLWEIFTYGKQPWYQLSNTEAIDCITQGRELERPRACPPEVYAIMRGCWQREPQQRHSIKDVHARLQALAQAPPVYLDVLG
Cytochrome P450 3A4, sequence (P08684 whole entry): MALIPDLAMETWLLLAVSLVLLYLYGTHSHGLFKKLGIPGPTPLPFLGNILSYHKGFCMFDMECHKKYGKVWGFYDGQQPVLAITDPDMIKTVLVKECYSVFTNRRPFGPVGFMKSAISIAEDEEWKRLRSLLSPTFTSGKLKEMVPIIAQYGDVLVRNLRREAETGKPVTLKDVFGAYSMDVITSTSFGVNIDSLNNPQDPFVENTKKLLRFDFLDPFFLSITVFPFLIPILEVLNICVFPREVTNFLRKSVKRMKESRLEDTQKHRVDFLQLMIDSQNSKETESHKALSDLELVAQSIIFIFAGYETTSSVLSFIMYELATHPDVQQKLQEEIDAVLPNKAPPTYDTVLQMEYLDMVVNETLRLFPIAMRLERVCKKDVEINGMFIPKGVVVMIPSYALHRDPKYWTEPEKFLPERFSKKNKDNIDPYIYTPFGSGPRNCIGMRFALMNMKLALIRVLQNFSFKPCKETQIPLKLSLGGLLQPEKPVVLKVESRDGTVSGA
Cytochrome P450 2C9, sequence (P11712 whole entry): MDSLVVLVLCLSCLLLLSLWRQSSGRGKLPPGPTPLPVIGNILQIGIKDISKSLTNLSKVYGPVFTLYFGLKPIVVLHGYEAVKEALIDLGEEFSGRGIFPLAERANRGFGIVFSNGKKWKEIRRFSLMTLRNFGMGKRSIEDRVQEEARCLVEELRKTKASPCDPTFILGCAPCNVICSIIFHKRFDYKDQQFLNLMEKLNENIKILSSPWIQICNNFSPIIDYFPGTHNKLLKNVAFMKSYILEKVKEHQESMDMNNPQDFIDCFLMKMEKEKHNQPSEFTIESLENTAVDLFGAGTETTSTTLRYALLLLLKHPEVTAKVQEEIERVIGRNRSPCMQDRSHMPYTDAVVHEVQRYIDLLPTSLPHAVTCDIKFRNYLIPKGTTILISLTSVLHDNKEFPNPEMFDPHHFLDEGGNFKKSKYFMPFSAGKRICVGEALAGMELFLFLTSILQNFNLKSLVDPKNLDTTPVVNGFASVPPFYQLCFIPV
Cytochrome P450 2D6, sequence (P10635 whole entry): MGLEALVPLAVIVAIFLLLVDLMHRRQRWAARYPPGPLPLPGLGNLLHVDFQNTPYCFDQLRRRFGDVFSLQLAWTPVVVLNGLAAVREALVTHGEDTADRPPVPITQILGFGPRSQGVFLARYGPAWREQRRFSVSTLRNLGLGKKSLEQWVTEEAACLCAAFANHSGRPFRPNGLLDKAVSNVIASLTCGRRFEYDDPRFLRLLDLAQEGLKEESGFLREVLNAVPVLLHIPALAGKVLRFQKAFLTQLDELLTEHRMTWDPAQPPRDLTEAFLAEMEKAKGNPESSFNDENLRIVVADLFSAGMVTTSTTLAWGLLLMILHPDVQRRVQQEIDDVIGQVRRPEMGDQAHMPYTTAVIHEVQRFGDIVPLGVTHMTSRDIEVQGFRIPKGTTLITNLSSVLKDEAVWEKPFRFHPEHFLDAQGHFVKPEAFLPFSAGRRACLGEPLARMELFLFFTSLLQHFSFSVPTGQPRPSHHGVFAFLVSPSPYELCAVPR
Voltage-gated inwardly rectifying potassium channel KCNH2, sequence (Q12809 whole entry): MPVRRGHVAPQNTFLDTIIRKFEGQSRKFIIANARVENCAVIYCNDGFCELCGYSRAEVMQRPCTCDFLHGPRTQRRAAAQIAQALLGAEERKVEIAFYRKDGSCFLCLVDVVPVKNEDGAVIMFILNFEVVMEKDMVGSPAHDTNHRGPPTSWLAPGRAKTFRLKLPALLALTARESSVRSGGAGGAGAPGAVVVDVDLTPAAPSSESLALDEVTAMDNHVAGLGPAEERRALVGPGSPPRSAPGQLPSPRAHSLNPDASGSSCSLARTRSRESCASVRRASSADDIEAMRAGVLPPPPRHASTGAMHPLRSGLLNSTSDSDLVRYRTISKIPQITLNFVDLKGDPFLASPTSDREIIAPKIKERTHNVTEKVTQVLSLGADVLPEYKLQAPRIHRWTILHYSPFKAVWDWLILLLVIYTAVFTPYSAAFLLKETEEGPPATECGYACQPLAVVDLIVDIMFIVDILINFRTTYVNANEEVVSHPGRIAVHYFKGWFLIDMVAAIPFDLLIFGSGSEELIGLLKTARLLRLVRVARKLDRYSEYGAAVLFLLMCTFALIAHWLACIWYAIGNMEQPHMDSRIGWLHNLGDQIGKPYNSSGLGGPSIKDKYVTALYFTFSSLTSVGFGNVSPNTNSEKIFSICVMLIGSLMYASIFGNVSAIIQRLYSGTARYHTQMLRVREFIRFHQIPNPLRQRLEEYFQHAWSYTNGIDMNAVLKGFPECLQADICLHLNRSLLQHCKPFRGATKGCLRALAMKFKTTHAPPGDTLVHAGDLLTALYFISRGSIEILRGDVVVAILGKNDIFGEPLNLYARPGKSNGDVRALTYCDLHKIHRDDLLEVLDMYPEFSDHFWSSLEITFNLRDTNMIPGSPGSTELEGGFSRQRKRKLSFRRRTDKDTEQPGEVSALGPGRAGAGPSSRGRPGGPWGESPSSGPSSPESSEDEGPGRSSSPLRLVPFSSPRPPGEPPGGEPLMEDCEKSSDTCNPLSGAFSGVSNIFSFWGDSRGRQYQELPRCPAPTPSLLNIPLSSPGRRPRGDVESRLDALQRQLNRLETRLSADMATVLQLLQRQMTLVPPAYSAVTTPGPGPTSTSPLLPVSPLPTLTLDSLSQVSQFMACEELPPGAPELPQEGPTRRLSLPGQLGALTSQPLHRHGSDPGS
Aurora kinase B, sequence (Q96GD4 whole entry): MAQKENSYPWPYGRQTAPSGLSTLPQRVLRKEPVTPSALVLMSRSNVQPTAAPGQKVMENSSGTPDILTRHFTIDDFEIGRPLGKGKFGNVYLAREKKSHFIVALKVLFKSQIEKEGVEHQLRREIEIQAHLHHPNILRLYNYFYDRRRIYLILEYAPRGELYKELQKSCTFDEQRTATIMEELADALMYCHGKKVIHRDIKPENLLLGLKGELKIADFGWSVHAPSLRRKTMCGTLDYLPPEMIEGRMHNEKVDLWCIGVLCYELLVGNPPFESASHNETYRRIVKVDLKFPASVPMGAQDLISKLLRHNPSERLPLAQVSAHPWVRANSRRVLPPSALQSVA

Which hepatic clearance at 1 µM [1] does the source give for `Cc1cnc(-c2nc3c(F)c(-c4cccc(Cl)c4C)c(CCC#N)cc3c3c2cc([C@@H](C)N2CCOCC2=O)n3[C@H]2[C@H]3CN[C@@H]2C3)cn1` here?
The hepatic clearance at 1 µM was 1 L/h/kg.

And the IC50 [2]?
Its IC50 is 11.2 µM.

What about the IC50 (Cytochrome P450 2D6) of the same molecule?
The IC50 was 7.2 µM.

And the half-life [3]?
The half-life was 6.4 h.

What about the IC50 (Cytochrome P450 3A4) of the same molecule?
Its IC50 is 17 µM.

What about the Activity [4] of the same molecule?
Its Activity is “Non-toxic”.

What about the half-life [5] of the same molecule?
The half-life was 3.8 h.

And the IC50 (Aurora kinase B)?
Its IC50 is 5.8 µM.

And the Cmax [6]?
Its Cmax is 0.057 µM.

And the QH (Primates)?
The QH was 37%.

And the concentration at 24 h [7]?
Its concentration at 24 h is about 8.5 µM.

And the IC50 (Cytochrome P450 2C9)?
Its IC50 is over 20 µM.

What about the AUC at 24 h [8] of the same molecule?
The AUC at 24 h was 331 nM·h.

What about the bioavailability [9] of the same molecule?
Its bioavailability is 42%.

What about the concentration at 24 h [10] of the same molecule?
The concentration at 24 h was about 0.95 µM.

What about the solubility [11] of the same molecule?
Its solubility is over 0.079 mg/mL.

And the IC50 (Cytochrome P450 2B6)?
The IC50 was over 20 µM.

And the Cmax [12]?
Its Cmax is 0.1 µM.

What about the TDI (Cytochrome P450) of the same molecule?
The TDI was “Not_active”.

And the Papp A→B at 2 h, 50 µM [13]?
The Papp A→B at 2 h, 50 µM was 36 nm/s.

What about the QH [14] of the same molecule?
Its QH is over 100%.

What about the bioavailability [15] of the same molecule?
The bioavailability was 27%.

And the IC50 [16]?
Its IC50 is 3.9 µM.

And the solubility [17]?
The solubility was over 0.9 mg/mL.

What about the IC50 (Cytochrome P450 1A2) of the same molecule?
The IC50 was over 20 µM.

What about the AUC [18] of the same molecule?
The AUC was 950 nM·h.
